The text below walks through data of patent US8252821B2, “Bioavailable capsule compositions of amorphous alpha-(N-sulfonamido)acetamide compound” (Bristol-Myers Squibb Company, priority 2009, dated 2012).

What all share (type): physicochemical
A short description of series [1]: Solubility of solubilized capsule formulations in FeSSIF at 37° C. As to conditions: FeSSIF pH 5.0, 37° C.
Series [2] can be described thus: Solubility of solubilized capsule formulations in FaSSIF at 37° C. To be noted: FaSSIF pH 6.5, 37° C.
The nature of series [3]: Aqueous solubility of the active compound. To be noted: water; at about room temperature.
Series [4] can be described thus: Solubility of solubilized capsule formulations in SGF at 37° C.

Each structure is given as a SMILES string. Some results are limits rather than exact numbers.

On to `NC(=O)[C@@H](CCC(F)(F)F)N(Cc1ccc(-c2ncon2)cc1F)S(=O)(=O)c1ccc(Cl)cc1` [Active Compound, (2R)-2-[[(4-chlorophenyl)sulfonyl][[2-fluoro-4-(1,2,4-oxadiazol-3-yl)phenyl]methyl]amino]-5,5,5-trifluoropentanamide], for which the “ACTIVE COMPOUND Concentration” value in series [1] (5 Min.) is 9.7 µg/mL; in series [1] (15 Min.), 11.5 µg/mL; in series [1] (30 Min.) it was 13.3 µg/mL; in series [1] (60 Min.), 15.3 µg/mL; in series [2] (5 Min.), 2.5 µg/mL; in series [2] (15 Min.) it was 3.8 µg/mL. Further, the “ACTIVE COMPOUND Concentration” value in series [2] (24 Hr.) stood at 7.7 µg/mL; in series [2] (30 Min.) it was 4.6 µg/mL; in series [2] (60 Min.), 6.0 µg/mL; in series [4] (5 Min.), 0.0 µg/mL; in series [4] (15 Min.) it was 4.6 µg/mL; in series [4] (24 Hr.) it was 1.0 µg/mL. The “ACTIVE COMPOUND Concentration” value in series [4] (30 Min.) turned out to be 1.6 µg/mL; in series [4] (60 Min.), 1.0 µg/mL. This molecule had a solubility in series [3] below 1 µg/mL.

As a reminder, the solubility is how much of the substance goes into solution per volume. A high value points to a readily soluble substance.
